From PMC5430962, “Retro-inverso Urokinase Receptor Antagonists for the Treatment of Metastatic Sarcomas” (Scientific Reports, 2017)
[ ]: non-standard residue; d: D form. Aib = CC(C)(N)C(=O)O

Tests used:
HT1080 cells = experiment: Cell proliferation, MTS assay; assay type: cell-based, human; conditions: 10 µM in growth medium, replaced every 24 hr
Method: Cell proliferation was assessed using the xCELLigence RTCA technology as described. Cells (2 × 10^3/well) were seeded in E-well plates in growth medium and left to growth for 85 hr in the presence or the absence of 10 µM RI-3. For MTS assay, cells seeded on plates in growth medium plus/minus 10 µM RI-3, were allowed to proliferate at 37 °C in 5% CO2 and the absorbance of adherent cells stained with tetrazolium/formazan was assessed with a microplate reader. In both cases, medium with or without RI-3 was replaced every 24 hr. Data are the means ± SD of three independent experiments, performed in triplicate.

[1] = tested on: GFP-Sarc cells on HUVEC monolayer; experiment: GFP-Sarc cell adhesion onto endothelium; assay type: cell-based, human; conditions: 10 nM
Method: GFP-tagged Sarc cells were seeded on an endothelial monolayer as previously described. Briefly, sterile round glass coverslips (12 mm in diameter) were coated with 1:8 diluted matrigel (Becton Dickinson). HUVEC (5 × 10^4 cells in 200 μL/well) were seeded onto matrigel and allowed to form a monolayer for ~24 hr at 37 °C, 5% CO2 prior to seeding GFP-Sarc cells (1 × 10^4 cells/well) suspended in complete endothelial medium plus diluents or 10 nM RI-3. At the indicated times, cell-associated fluorescence was assessed by reading cells with the fluorescence plate reader. In a subset of experiments, after 2 hr, cells were stained with rhodamine-conjugated phalloidin and green fluorescent Sarc cells were identified on multiple z-series collected at 0.20 µm intervals using a confocal microscope (Carl Zeiss).

FAK(Y397) = experiment: Phospho-kinase array, RBL-2H3/ETFR cells; assay type: cell-based, rat; conditions: 10 nM fMLF plus 10 nM peptide, 10 min
Method: (§1) RBL-2H3/ETFR grown to semi-confluence, were exposed to DMEM alone, 10 nM fMLF with/without 10 nM RI-3 at 37 °C in humidified air with 5% CO2. At the indicated times, cells were lysed in RIPA buffer and cell lysate protein content was measured by a colorimetric assay. Western blot analysis of AKT phosphorylation was performed as previously described using anti-phospho-Akt (Ser473) (pAKT) Ab (Cell Signaling) and anti-Akt mAb (R&D System). The effects of fMLF with/without 10 nM RI-3 were analyzed at the level of global kinase phosphorylation, using the dot-blot Proteome Profiler^TM Array Human PhosphoKinase Array Kit (R&D Systems), according to manufacturer’s instructions. Briefly, 300 µg of protein were applied on each membrane and the signals were detected as described for Western blot. The pixel density of each spot was measured using NIH Image 1.62 software. The intensity of positive control spots was used to normalize results between the four membranes. The intensity for each spot was then averaged over the duplicate spots.

Fgr(Y412) = experiment: Phospho-kinase array, RBL-2H3/ETFR cells; assay type: cell-based, rat; conditions: 10 nM fMLF plus 10 nM peptide, 10 min
Method: as §1

p38α(T180/Y182) = experiment: Phospho-kinase array, RBL-2H3/ETFR cells; assay type: cell-based, rat; conditions: 10 nM fMLF plus 10 nM peptide, 10 min
Method: as §1

CREB(S133) = experiment: Phospho-kinase array, RBL-2H3/ETFR cells; assay type: cell-based, rat; conditions: 10 nM fMLF plus 10 nM peptide, 10 min
Method: as §1

Akt(S473) = experiment: Phospho-kinase array, RBL-2H3/ETFR cells; assay type: cell-based, rat; conditions: 10 nM fMLF plus 10 nM peptide, 10 min
Method: as §1

[2] = tested on: ERK1/2(T202/Y204/T185/Y187); experiment: Phospho-kinase array, RBL-2H3/ETFR cells; assay type: cell-based, rat; conditions: 10 nM fMLF plus 10 nM peptide, 10 min
Method: as §1

GFP-tagged Sarc cells = experiment: Growth and spread of subcutaneous GFP-tagged Sarc tumors in nude mice; assay type: in vivo, Foxn1nu/nu female nude mice; conditions: five mice per group
Method: To evaluate the effect of RI-3 on tumor growth and vascularization, Sarc cells were injected, as a single-cell suspension (1 × 10^6 cells in 100 µl of sterile PBS, 97% viability), subcutaneously in the flanks of sixteen six-eight weeks old, Foxn1nu/nu female nude mice (Harlan). Animals were randomized into two 8-mice groups with the treatment group receiving 6 mg/kg RI-3 by intra-peritoneal injection every 24 hr, and the control group receiving an equivalent injected volume of vehicle (PBS) only. Time-dependent average weight was monitored every two days. The length and the width of tumors were measured at different time points with a calliper and volumes were calculated using the formula: ½ × (width)[2] × length (mm). After 10 days, blood samples (at least 500 µL/mouse) from the retro-orbital venous plexus of mice anesthetized with 1% isoflurane were collected using a heparinized capillary tube and processed for determination of the Circulating Tumor Cells (CTCs). Then, the animals were sacrificed, the excised tumors were fixed in buffered formalin and processed for paraffin sectioning. Tumor vascularization was assessed by counting vascular channels harbouring red blood cells on CD31 immuno-stained sections in 5 randomly chosen fields per section, in at least two sections per tumor at x 200 as described. Two additional experiments were carried out with the same experimental design by injecting GFP-tagged Sarc cells (1 × 10^6 cells/mouse) subcutaneously in the flanks of twenty-five six-eight weeks old, Foxn1nu/nu female nude mice (Harlan). Animals were treated with 6 mg/kg RI-3, 6 mg/kg RERF or vehicle by intra-peritoneal injection every 24 hr for 10 or 12 days. Tumor growth and the appearance of positive tumor lesions near tumors and in lungs were monitored as brightly visualized by GFP fluorescence with a MacroFluo fluorescence stereomicroscope (Leica). We searched for the presence of GFP-positive nodules on the entire surface of freshly isolated lungs. Lungs were also sliced at approximately 3-mm thickness to examine the parenchyma in depth, and the positive nodules were acquired at higher magnification.

**Q.** With “Ac-[dY][dR][Aib][dR]-NH2 (SMILES CC(=O)N[C@H](Cc1ccc(O)cc1)C(=O)N[C@H](CCCNC(=N)N)C(=O)NC(C)(C)C(=O)N[C@H](CCCNC(=N)N)C(N)=O) [RI-3]” as the substance, how does the “effect on number of metabolically active cells (MTS)” value (HT1080 cells) read?
**A.** no difference was apparent

**Q.** What about the “reduction of cell-associated fluorescence (adhesion to endothelium)” value (from here on “reduction … (adhesion to endothelium)”) ([1]; after 5 min) of the same substance?
**A.** 72%

**Q.** And the “reduction … (adhesion to endothelium)” value ([1]; after 10 min)?
**A.** 50%

**Q.** And the “reduction … (adhesion to endothelium)” value ([1]; after 20 min)?
**A.** 20%

**Q.** What about the “reduction … (adhesion to endothelium)” value ([1]; after 40 min) of the same substance?
**A.** 22%

**Q.** And the “reduction in fMLF-dependent phosphorylation of FAK(Y397)” value (FAK(Y397))?
**A.** 30%

**Q.** And the “reduction in fMLF-dependent phosphorylation of Fgr(Y412)” value (Fgr(Y412))?
**A.** 43%

**Q.** What about the “reduction in fMLF-dependent phosphorylation of p38α(T180/Y182)” value (p38α(T180/Y182)) of the same substance?
**A.** 21%

**Q.** What about the “reduction in fMLF-dependent phosphorylation of CREB(S133)” value (CREB(S133)) of the same substance?
**A.** 42%

**Q.** What about the “reduction in fMLF-dependent phosphorylation of Akt(S473)” value (Akt(S473)) of the same substance?
**A.** 22%

**Q.** What about the “reduction in fMLF-dependent phosphorylation of ERK1/2(T202/Y204/T185/Y187)” value [2] of the same substance?
**A.** 25%

**Q.** What about the “changes in body weight” value (GFP-tagged Sarc cells; 6 mg/Kg i.p. every day for 12 days) of the same substance?
**A.** did not cause changes in body weight

**Q.** What about the “lungs with GFP-positive nodules (MacroFluo)” value (GFP-tagged Sarc cells; 6 mg/Kg i.p. every day for 12 days, untreated 3/5) of the same substance?
**A.** negative

**Q.** What about the “volume of tumors after 12 days” value (GFP-tagged Sarc cells; 6 mg/Kg i.p. every day for 12 days, vehicle 678 +/− 169) of the same substance?
**A.** 381 +/− 123 mm^3

**Q.** What about the “animals with subcutaneous GFP-positive lesions distant at least one centimeter from the primary tumors” value (GFP-tagged Sarc cells; set-up experiment, 6 mg/Kg i.p. every day, sacrifice after 12 days, vehicle 4/5) of the same substance?
**A.** 2/5
